Measured values as given in patent US20080146509A1, “COMPOSITIONS FOR DELIVERING PARATHYROID HORMONE AND CALCITONIN” (EMISPHERE TECHNOLOGIES, INC., priority 2002, published 2008).

Experiment: Mean peak blood calcitonin concentration (Cmax) of sCT after oral capsule dosing of monkeys
Assay type: in vivo, cynomolgous monkeys
Text: 5-CNAC disodium salt ethanol solvate was screened through a 35 mesh Tyler standard sieve. 13.54 g of this material was weighed out and kept in a weighing boat. 0.028 g of parathyroid hormone (PTH) and 0.025 g of salmon calcitonin (sCT) were separately weighed out and kept in separate weighing boats. An amount of the previously weighed 5-CNAC disodium salt ethanol solvate approximately equivalent in volume to the total volume of PTH (i.e. a geometric amount) was prescreened through the same 35 mesh Tyler standard sieve on to clean paper. All the PTH was then screened through the same sieve onto the same paper. An amount of the screened 5-CNAC disodium salt ethanol solvate equivalent in volume to the total amount of material on the paper was screened through the same sieve. This was followed by screening the sCT through the same sieve on to the paper. A geometric amount of the 5-CNAC disodium salt ethanol solvate was then screened through the same sieve onto the paper. The materials on the paper were then transferred to a glass mortar and mixed by light trituration with a pestle. The remainder of the 5-CNAC disodium salt ethanol solvate was screened through the same 35 mesh Tyler standard sieve. […]
Four cynomolgous monkeys were dosed via a feeding tube two capsules each followed by 10 ml water. The mean peak blood calcitonin concentration, Cmax, of sCT was then measured.

CC(C)C[C@H](NC(=O)[C@H](CCCCN)NC(=O)CNC(=O)[C@H](CC(C)C)NC(=O)[C@@H](NC(=O)[C@@H]1CSSC[C@H](N)C(=O)N[C@@H](CO)C(=O)N[C@@H](CC(N)=O)C(=O)N[C@@H](CC(C)C)C(=O)N[C@@H](CO)C(=O)N[C@@H]([C@@H](C)O)C(=O)N1)C(C)C)C(=O)N[C@@H](CO)C(=O)N[C@@H](CCC(N)=O)C(=O)N[C@@H](CCC(=O)O)C(=O)N[C@@H](CC(C)C)C(=O)N[C@@H](Cc1c[nH]cn1)C(=O)N[C@@H](CCCCN)C(=O)N[C@@H](CC(C)C)C(=O)N[C@@H](CCC(N)=O)C(=O)N[C@H](C(=O)N[C@@H](Cc1ccc(O)cc1)C(=O)N1CCC[C@H]1C(=O)N[C@@H](CCCNC(=N)N)C(=O)N[C@H](C(=O)N[C@@H](CC(N)=O)C(=O)N[C@H](C(=O)NCC(=O)N[C@@H](CO)C(=O)NCC(=O)N[C@H](C(=O)N1CCC[C@H]1C(N)=O)[C@@H](C)O)[C@@H](C)O)[C@@H](C)O)[C@@H](C)O [sCT, salmon calcitonin]
mean peak blood concentration of sCT relative to that found when dosing capsules of 5-CNAC and sCT in rhesus monkeys (capsules of 5-CNAC disodium salt ethanol solvate, PTH and sCT in cynomolgous monkeys vs capsules of 5-CNAC and sCT in rhesus monkeys): about four
Cmax (monkey, blood, oral, cynomolgous monkeys, via feeding tube two capsules each (per capsule approx. 226.28 mg 5-CNAC disodium salt ethanol solvate, 0.461 mg PTH, 0.411 mg sCT) followed by 10 ml water): 2 to 2.5 ng/mL
